Experimental data published in US9193673B2, “Derivatives of mesalazine, process of their preparation and their use in the treatment of intestinal inflammatory diseases” (SOFAR SPA, priority 2010, dated 2015).

How the values were obtained:
[1] = Stability in simulated gastric and simulated intestinal fluids; assay type: physicochemical
Protocol: Such study is conducted with the aim of evaluating the stability of the compound (IV) at […] in absence of enzymes of the intestinal bacterial flora.
(§1) The stability of the compound (IV) is compared to that of known reference standards.

[2] = Stability in murine intestinal homogenate; assay type: in vitro ADME, rat; settings: rat intestinal homogenate, reference standard (concentration not given)
Protocol: Such study is conducted with the aim of evaluating the stability of the compound (IV) in intestinal homogenate.
as §1

[3] = Permeability on the Caco2 cellular line; assay type: in vitro ADME; settings: human, Caco-2; Apical (pH 6.5) → Basolateral (pH 7.4), Caco2; read-out: Papp A→B (nm/sec) Mean ± SD
Protocol: (§2) Such study is conducted with the aim of evaluating the capacity of the molecule to permeate the intestinal epithelium and be absorbed thereby evaluating the Papp (apparent permeability coefficient). The Papp of the compound (IV) is compared to that of the known reference standards.

Caco2 cellular line = experiment: Permeability on the Caco2 cellular line; assay type: in vitro ADME; settings: A→B, Caco2
Protocol: as §2

[4] = Hydrolysis in rat intestine preserved in different conditions; assay type: in vitro ADME
Protocol: Such study is conducted with the aim of surveying the stability of the compound (IV) in rat intestine homogenate preserved in different conditions: frozen at […] and at −80° C.
as §1

Papp A→B [3] | A→B Mean mass balance % (Caco2 cellular line) | Compound | % Residue ([1]; SGF, 30 min incubation) | % Residue ([1]; SGF, 60 min incubation) | % Residue ([1]; SIF, 30 min incubation) | % Residue ([1]; SIF, 60 min incubation) | Residue percentage ([2]; 30 min) | Residue percentage ([2]; 1 hr) | Residue percentage ([2]; 2 hrs) | Residue percentage ([2]; 4 hrs) | Stability in rat intestine (residue %) ([4]; fresh homogenate, 15 min) | Stability in rat intestine (residue %) ([4]; fresh homogenate, 30 min) | Stability in rat intestine (residue %) ([4]; fresh homogenate, 60 min) | Stability in rat intestine (residue %) ([4]; homogenate 4° C., 15 min) | Stability in rat intestine (residue %) ([4]; homogenate 4° C., 30 min) | Stability in rat intestine (residue %) ([4]; homogenate 4° C., 60 min) | Stability in rat intestine (residue %) ([4]; intestine −80° C., 15 min) | Stability in rat intestine (residue %) ([4]; intestine −80° C., 30 min) | Stability in rat intestine (residue %) ([4]; intestine −80° C., 60 min)
 |  | CC[C@H]1OC(=O)[C@H](C)[C@@H](O[C@H]2C[C@@](C)(OC)[C@@H](O)[C@H](C)O2)[C@H](C)[C@@H](O[C@@H]2O[C@H](C)C[C@H](N(C)C)[C@H]2O)[C@](C)(O)C[C@@H](C)C(=O)[C@H](C)[C@@H](O)[C@]1(C)O [Erythromycin, reference compound] | 0.2 ± 0.1% | 0.1 ± 0.1% | 98.1 ± 1.4% | 100.9 ± 0.4% | 83.5 ± 3.6% | 84.7 ± 3.6% | 95.0 ± 11.0% | 97.5 ± 2.8% |  |  |  |  |  |  |  |  | 
0.41 ± 0.21 ×10⁻⁶ cm/s | 89% | CC[C@]1(O)C[C@@H]2CN(CCc3c([nH]c4ccccc34)[C@@](C(=O)OC)(c3cc4c(cc3OC)N(C)[C@H]3[C@@](O)(C(=O)OC)[C@H](OC(C)=O)[C@]5(CC)C=CCN6CC[C@]43[C@@H]65)C2)C1 [Vinblastine, reference compound] |  |  |  |  |  |  |  |  |  |  |  |  |  |  |  |  | 
 |  | O=C(O)CCCc1ccc(N(CCCl)CCCl)cc1 [Chlorambucil, reference compound] | 92.8 ± 2.1% | 89.8 ± 1.5% | 42.1 ± 0.5% | 13.9 ± 0.3% | 49.5 ± 7.8% | 16.9 ± 2.2% | 1.5 ± 0.1% | 0.20 ± 0.08% | 75.2 ± 3.8% | 58.7 ± 2.3% | 28.0 ± 1.5% | 76.5 ± 5.0% | 53.0 ± 13.9% | 25.9 ± 5.3% | 73.0 ± 1.2% | 25.0 ± 6.1% | 6.9 ± 1.4%
